Values quoted from earlier work in US20020094316A1, “Polypodal chelants for metallopharmaceuticals” (priority 2001, published 2002).
One block for each compound: values may come before it.

What was measured:
[1] = compared with MECAM

Compound: O=C([O-])CN(CCN(CC(=O)[O-])CC(=O)[O-])CCN(CC(=O)[O-])CC(=O)[O-].[Gd+3] [Gd(DTPA)^2−]
Kobs (decomposition) (acidic conditions): 1.2×10^−3 so^−1

half-life (in 0.1 M HCl): 60.2 h
Compound: O=C([O-])CN1CCN(CC(=O)[O-])CCN(CC(=O)[O-])CCN(CC(=O)[O-])CC1.[Gd+3] [Gd(DOTA)^−]

stability of Fe^3+ complex relative to MECAM [1]: much more stable
Compound: O=C(N[C@H]1COC(=O)[C@@H](NC(=O)c2cccc(O)c2O)COC(=O)[C@@H](NC(=O)c2cccc(O)c2O)COC1=O)c1cccc(O)c1O [enterobactin]
